Source: ChEMBL document CHEMBL4346730 (Bioorg Med Chem, 2019)
Values after ≈ are worked out from the molar mass of the structure shown.

Columns and labels:
[1] = Inhibition of bovine corpus striatum PDE10A using [3H]cAMP or [3H]cGMP as substrate preincubated for 5 mins followed by substrate addition and measured after 30 mins by liquid scintillation counting method; design: species or system Bos taurus
[2] = Solubility in artificial interstitial fluid at pH 5 by HPLC analysis; type: physicochemical
[3] = biological target: hERG (KCNH2) (Homo sapiens, UniProt Q12809); test: Inhibition of human ERG at 1 uM relative to control
Sequence of hERG (KCNH2) (Q12809 whole entry): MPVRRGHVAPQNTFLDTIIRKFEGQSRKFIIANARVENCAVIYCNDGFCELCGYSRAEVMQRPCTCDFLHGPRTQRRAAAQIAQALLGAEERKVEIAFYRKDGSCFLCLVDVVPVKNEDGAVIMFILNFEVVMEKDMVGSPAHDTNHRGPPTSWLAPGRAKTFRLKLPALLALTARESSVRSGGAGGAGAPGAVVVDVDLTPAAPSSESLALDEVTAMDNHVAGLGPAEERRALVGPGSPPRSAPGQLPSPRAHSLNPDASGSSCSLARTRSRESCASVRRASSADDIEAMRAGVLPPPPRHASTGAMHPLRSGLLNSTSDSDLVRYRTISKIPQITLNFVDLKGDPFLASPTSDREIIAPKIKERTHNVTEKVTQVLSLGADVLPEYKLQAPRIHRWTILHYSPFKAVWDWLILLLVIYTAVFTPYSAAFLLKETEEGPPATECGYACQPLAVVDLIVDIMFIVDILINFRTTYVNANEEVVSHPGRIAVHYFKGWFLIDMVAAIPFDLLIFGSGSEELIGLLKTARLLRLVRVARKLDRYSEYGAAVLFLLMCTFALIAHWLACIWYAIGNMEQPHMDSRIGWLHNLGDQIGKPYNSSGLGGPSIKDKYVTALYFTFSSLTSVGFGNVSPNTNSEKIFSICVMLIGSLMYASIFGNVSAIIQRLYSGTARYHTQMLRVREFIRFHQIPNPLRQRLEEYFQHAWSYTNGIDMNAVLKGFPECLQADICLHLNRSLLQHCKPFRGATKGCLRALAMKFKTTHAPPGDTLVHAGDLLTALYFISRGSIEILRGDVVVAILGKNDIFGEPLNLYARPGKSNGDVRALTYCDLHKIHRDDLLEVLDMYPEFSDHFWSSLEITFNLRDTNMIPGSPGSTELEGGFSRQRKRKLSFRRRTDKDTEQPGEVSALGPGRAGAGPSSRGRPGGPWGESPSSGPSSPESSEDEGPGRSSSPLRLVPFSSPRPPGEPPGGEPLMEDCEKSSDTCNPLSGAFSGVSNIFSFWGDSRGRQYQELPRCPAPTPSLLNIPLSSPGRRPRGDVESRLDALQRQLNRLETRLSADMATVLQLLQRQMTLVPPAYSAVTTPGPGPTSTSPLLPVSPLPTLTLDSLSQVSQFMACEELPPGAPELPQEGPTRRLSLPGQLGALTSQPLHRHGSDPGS

[4] = Chromatographic hydrophobicity index, log D of the compound at pH 7.4 by reverse-phase HPLC analysis; type: physicochemical; details: buffer
[5] = biological target: cAMP and cAMP-inhibited cGMP 3',5'-cyclic phosphodiesterase 10A (Homo sapiens, UniProt Q9Y233); test: Inhibition of human N-terminal FLAG-tagged PDE10A (1 to 90 residues) expressed in using African green monkey COS7 cells using [3H]cAMP or [3H]cGMP as substrate preincubated for 5 mins followed by substrate addition and measured after 30 mins by liquid scintillation counting method
Sequence of cAMP and cAMP-inhibited cGMP 3',5'-cyclic phosphodiesterase 10A (Q9Y233 whole entry, the tested form may be a part): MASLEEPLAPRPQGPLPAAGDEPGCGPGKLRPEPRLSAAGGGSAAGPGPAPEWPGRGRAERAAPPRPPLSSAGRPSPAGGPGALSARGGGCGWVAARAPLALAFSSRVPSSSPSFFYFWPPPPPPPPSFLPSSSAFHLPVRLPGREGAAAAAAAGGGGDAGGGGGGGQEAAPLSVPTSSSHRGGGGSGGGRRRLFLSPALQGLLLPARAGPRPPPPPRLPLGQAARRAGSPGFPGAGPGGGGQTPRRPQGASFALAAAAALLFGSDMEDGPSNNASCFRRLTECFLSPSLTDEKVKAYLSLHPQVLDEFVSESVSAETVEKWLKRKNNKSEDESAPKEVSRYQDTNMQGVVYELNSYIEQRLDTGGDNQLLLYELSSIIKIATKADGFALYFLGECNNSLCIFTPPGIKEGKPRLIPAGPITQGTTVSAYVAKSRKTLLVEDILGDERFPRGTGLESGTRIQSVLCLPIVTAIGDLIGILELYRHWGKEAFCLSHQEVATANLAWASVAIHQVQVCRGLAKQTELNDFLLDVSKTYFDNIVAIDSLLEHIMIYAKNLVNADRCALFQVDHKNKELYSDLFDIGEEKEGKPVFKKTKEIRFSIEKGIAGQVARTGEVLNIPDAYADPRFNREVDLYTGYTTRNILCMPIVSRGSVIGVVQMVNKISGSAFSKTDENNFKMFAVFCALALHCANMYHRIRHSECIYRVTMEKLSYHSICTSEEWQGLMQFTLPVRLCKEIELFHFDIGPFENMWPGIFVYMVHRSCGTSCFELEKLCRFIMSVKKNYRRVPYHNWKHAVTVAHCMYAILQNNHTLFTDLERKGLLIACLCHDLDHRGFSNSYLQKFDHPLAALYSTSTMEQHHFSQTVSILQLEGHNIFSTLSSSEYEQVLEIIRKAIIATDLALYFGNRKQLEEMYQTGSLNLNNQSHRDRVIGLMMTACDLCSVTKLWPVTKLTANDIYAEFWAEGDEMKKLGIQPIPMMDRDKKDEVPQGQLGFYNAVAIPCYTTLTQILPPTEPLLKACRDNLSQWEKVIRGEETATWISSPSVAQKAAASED

[6] = biological target: Phosphodiesterase 4 (Homo sapiens, UniProt P27815+Q08499+Q07343+Q08493); test: Inhibition of PDE4 (unknown origin); type: protein assay
[7] = biological target: cGMP-specific 3',5'-cyclic phosphodiesterase (Homo sapiens, UniProt O76074); test: Inhibition of PDE5A (unknown origin)
[8] = biological target: Phosphodiesterase 6; test: Inhibition of PDE6 (unknown origin); type: protein assay, Homo sapiens
[9] = Oral bioavailability in Wistar rat at 3 mg/kg; type: ADME, organism-based; details: in vivo
[10] = Unbound brain-to-plasma concentration ratio in Wistar rat at 3 mg/kg, po; type: ADME, organism-based
[11] = Half life in Wistar rat at 0.3 mg/kg, iv; type: ADME, organism-based; details: in vivo
[12] = test system: Rattus norvegicus; test: Antipsychotic activity in po dosed Wistar rat assessed as inhibition of electric stimulation-induced conditioned avoidance responses measured up to 6 days; type: functional; details: 144 h, read-out: ID50 (the source's name)
[13] = Clearance in Wistar rat at 0.3 mg/kg, iv; details: in vivo
[14] = Volume of distribution at steady state in Wistar rat at 0.3 mg/kg, iv; details: in vivo
[15] = Intrinsic clearance in human liver microsomes; type: ADME, Microsome; details: read-out: CLH
[16] = Ratio of IC50 for PDE1 (unknown origin) to IC50 for bovine corpus striatum PDE10A
[17] = Ratio of IC50 for PDE4 (unknown origin) to IC50 for bovine corpus striatum PDE10A
[18] = Ratio of IC50 for PDE2A (unknown origin) to IC50 for bovine corpus striatum PDE10A
[19] = Ratio of IC50 for PDE3A (unknown origin) to IC50 for bovine corpus striatum PDE10A
[20] = Ratio of IC50 for PDE5A (unknown origin) to IC50 for bovine corpus striatum PDE10A
[21] = Ratio of IC50 for PDE6 (unknown origin) to IC50 for bovine corpus striatum PDE10A
[22] = Ratio of IC50 for PDE7B (unknown origin) to IC50 for bovine corpus striatum PDE10A
[23] = Ratio of IC50 for PDE8A (unknown origin) to IC50 for bovine corpus striatum PDE10A
[24] = Ratio of IC50 for PDE9A (unknown origin) to IC50 for bovine corpus striatum PDE10A
[25] = Ratio of IC50 for PDE11A (unknown origin) to IC50 for bovine corpus striatum PDE10A

SMILES | IC50 [1] | solubility [2] | CHI [4] | inhibition at 1 µM [3] | further results
Cc1nc2ccccc2nc1-c1cn2nc(N3CCCC3)cc(NC3CCOCC3)c2n1 | 0.41 nM |  |  |  | 
Cc1ccc2nc(-c3cc4nc(N5CCCC5)cc(NC5CCOCC5)n4n3)c(C)nc2c1.Cl | 0.46 nM | 0.017 mg/mL |  | 80% | 
Cc1nc2ccccc2nc1-c1cn2c(NC3CCOCC3)cc(N3CCCC3)nc2n1 | 71 nM |  |  |  | 
Cc1nc2ccc(F)cc2nc1/C=C/c1nc(NC2CCOCC2)cc(N2CCCC2)n1 | 0.14 nM |  |  |  | 
Cc1nc2ccccc2nc1-c1cc2nc(N3CCCC3)cc(NC3CCOCC3)n2n1 | 0.15 nM | 0.0081 mg/mL (≈ 18.9 µM) |  | 63% | 
Cc1nc2ccccc2nc1-c1nc2nc(N3CCCC3)cc(NC3CCOCC3)n2n1 | 6 nM |  |  |  | 
Cc1nc2c(C)cccc2nc1-c1cc2nc(N3CCCC3)cc(NC3CCOCC3)n2n1.Cl | 0.78 nM | 0.032 mg/mL |  | 94% | 
Cc1nc2ccccc2nc1-c1cc2nc(N3CC[C@@H](F)C3)cc(N(C)C3CCOCC3)n2n1.Cl |  | 0.0048 mg/mL |  |  | IC50 [5]: 0.061 nM; bioavailability [9]: 19.2%; Kp uu ([10]; Wistar, brain and plasma, read-out: K(p,uu,brain)): 0.61; half-life [11]: 3.2 h; microsomal CLint [15]: 127 µL/min/mg; Ratio IC50 [16]: > 1000; Ratio IC50 [17]: > 1000; Ratio IC50 [18]: > 1000; Ratio IC50 [19]: > 1000; Ratio IC50 [20]: > 1000; Ratio IC50 [21]: > 1000; Ratio IC50 [22]: > 1000; Ratio IC50 [23]: > 1000; Ratio IC50 [24]: > 1000; Ratio IC50 [25]: > 1000

Further compounds by falling IC50 [1], results first:

IC50 [1] | solubility [2] | CHI [4] | SMILES | inhibition at 1 µM [3] | further results
0.09 nM | > 1 mg/mL | 3.4 | Cc1ccc2nc(C)c(-c3cc4nc(N5CCCC5)cc(NC5CCOCC5)n4n3)nc2c1.Cl | 64% | 
0.09 nM | 0.118 mg/mL | 2.79 | Cc1nc2ccc(F)cc2nc1-c1cc2nc(N3CC[C@@H](F)C3)cc(NCC(C)(C)O)n2n1.Cl | 23% | IC50 [5]: 0.062 nM; IC50 [6]: 289 nM; IC50 [7]: 437 nM; IC50 [8]: 561 nM; bioavailability [9]: 43.7%; K(p,uu,brain) ([10]; brain): 0.5; half-life [11]: 3.09 h; ED50 [12]: 0.32 mg/kg; CL [13]: 0.526 L/h/kg; Vdss [14]: 2.307 L/kg
0.08 nM | 0.0051 mg/mL | 4.1 | CO[C@H]1CC[C@H](Nc2cc(N3CCCC3)nc3cc(-c4nc5cc(C)ccc5nc4C)nn23)CC1.Cl | 40% | 
0.036 nM | 0.062 mg/mL | 3.29 | Cc1ccc2nc(C)c(-c3cc4nc(N5CCCC5)cc(N[C@H]5CC[C@](C)(O)CC5)n4n3)nc2c1.Cl | 29% | 
0.033 nM | 0.019 mg/mL |  | Cc1ccc2nc(C)c(-c3cc4nc(N5CCCC5)cc(N[C@H]5CC[C@H](O)CC5)n4n3)nc2c1.Cl |  | 
0.02 nM | 0.121 mg/mL |  | Cc1nc2cccc(C)c2nc1-c1cc2nc(N3CCCC3)cc(NC3CCOCC3)n2n1.Cl | 99% | 
0.0088 nM | 0.015 mg/mL | 3.23 | Cc1nc2ccc(F)cc2nc1-c1cc2nc(N3CCCC3)cc(N[C@H]3CC[C@](C)(O)CC3)n2n1.Cl | 12% | 
0.0081 nM | 0.0087 mg/mL | 3.07 | Cc1nc2ccc(F)cc2nc1-c1cc2nc(N3CCCC3)cc(NCC(C)(C)O)n2n1.Cl | 50% | 
